# Laboratory results: a melting point compilation (Tetko et al.; mined from patent text by program, amines drawn as free bases though some values may be those of a salt)
row,SMILES,melting point
1,"CCN1CCCC1CNC(=O)c1cccc(N(C2CN(C(c3ccc(Cl)cc3)c3ccc(Cl)cc3)C2)S(C)(=O)=O)c1 (single isomer, unassigned; (+))",122 °C
2,CC(C)C[C@H](NC(=O)OCc1ccco1)C(=O)N[C@@H](Cc1ccccc1)C(=O)CSCc1ccco1,115 to 118 °C
3,CN1c2ccccc2N(Cc2ccccc2)C(=O)[C@H]2CCC[C@H]21 (relative stereo),123 to 125 °C
4,CC[C@H]1CN(c2c(F)cc3c(=O)c(C(=O)O)cn(C4CC4)c3c2C)C[C@H]1N,148 to 150 °C
5,CN(Cc1cc2c(=O)c(C(=O)NCc3ccc(Cl)cc3)cn(C)c2o1)CC(O)CSc1nnc(N)s1 (configuration not stated),200 to 204 °C
6,O=C(CCC1CCCC1)Nc1ccc2ncn3c(=O)c(C(=O)O)cnc3c2c1,279 to 283 °C
7,C#CCN1C(=O)COc2cc(F)c(-n3nc4ccc(Cl)cn4c3=O)cc21,196 to 198 °C
8,COCCOC(=O)C1=C(C)NC(C)=C(C(=O)OCC(F)(F)F)C1c1cccc([N+](=O)[O-])c1 (configuration not stated),169 °C
9,CCCCCCCCCCCCCCS(N)(=O)=O,92 to 93 °C
10,CCCc1c(O)ccc2c1CCCC2=O,159 to 160 °C
11,CC=C(C(=O)OC)c1ccccc1CBr,64 to 66 °C
12,N#Cc1c(Nc2cccc(Cl)c2)n[nH]c1N,195 to 200 °C
13,COc1ccc(COCc2nnc3n2-c2ccc(Cl)cc2C(c2ccccc2Cl)=NC3)cc1,235 to 237 °C
14,O=C(O)C1Cc2c(ccc3c(=O)c4ccccc4oc23)O1 (configuration not stated),283 to 286 °C
15,CN(C)Cc1ccc(CSCCNC(=N)N[N+](=O)[O-])s1,118 °C
16,CC(C(=O)c1ncn2c1c(=O)n(C(C)C)c1ccccc12)C(=O)C1CC1 (configuration not stated),167 to 169 °C
17,COc1nc(C)nc(NC(=O)NS(=O)(=O)c2ccccc2C=CC(F)(F)F)n1,154 to 155 °C
18,OCC#Cc1cnc(Cl)nc1NC1CCCC1,162 to 163 °C
19,CCOP(=O)(CC(=O)Nc1cc2c(Nc3ccc(Cl)c(Br)c3)ncnc2cn1)OCC,113 to 116 °C

row,SMILES,melting point
1,C=C(C(=O)OC)c1ccc2c(=O)c3ccccc3ccc2c1,153 to 156 °C
2,CCCc1c(OCCCCCOc2ccc3ccc(OCC(=O)O)cc3c2CCC(=O)O)ccc2c1OCCC2=O,175 to 178 °C
3,CC(C)=CCn1c(=S)sc2c(=O)[nH]c(N)nc21,> 320 °C
4,CCNc1cc(NS(=O)(=O)c2ccc(C(C)(C)C)cc2)nc(NCC)n1,316 to 318 °C
5,Cc1nn(C)c(O)c1C(=O)c1ccc(Cl)cc1[N+](=O)[O-],223 to 224 °C
6,N#Cc1ccc(-c2cccc(-c3nc4cc(C#N)ccc4[nH]3)c2)nc1,281 to 282 °C
7,CCc1c(CCN2CCC(c3nsc4cc(F)ccc34)CC2)sc2c1CCN(C(C)=O)C2,156 to 160 °C
8,CCc1ccc(-c2nc3cccnc3n2-c2ccc(CCNC[C@H](O)COc3ccc(O)cc3)cc2)cc1,75 to 78 °C
9,COc1ccc2c(c1)c(C=C1SC(=S)N(CC(=O)O)C1=O)c(C)n2C(=O)c1ccc(Cl)cc1,204 to 208 °C
10,O=C(O)[C@H](Cc1ccccc1)N[C@@H](Cc1c[nH]c2ccccc12)C(=O)OCc1ccccc1,147 to 150 °C
11,COC(=O)c1cc2cc(OC(F)F)ccc2nc1C(=O)OC,84 to 85 °C
12,Cn1nc2ccc(Cl)nn2c1=O,176 to 177 °C
13,O=CN(O)C(CCc1ncc(F)cn1)CS(=O)(=O)N1CCN(c2ccc(Cl)cn2)CC1 (configuration not stated),154 to 155 °C
14,COC(=O)c1ccc2c(c1)N(C(=O)N1CCC(c3cccnc3)C1)CCO2 (configuration not stated),61 °C
15,CSC1=NC(=O)C(=Cc2nc(C(C)(C)C)c(O)c(C(C)(C)C)n2)S1,205 to 208 °C
16,COc1ccc(C2=NN(C3CCN(C(=O)CCl)CC3)C(=O)[C@@H]3CC=CC[C@H]23)cc1OC,104 to 106 °C
17,Cc1nc2c(c3c1[nH]c1cc(F)ccc13)C(=O)CC(C)(C)C2,244 to 246 °C
18,CNC(=O)c1ccccc1Nc1nc(Nc2ccc3c(c2)CCN(C(C)C)CC3)ncc1Cl,140 to 158 °C
